Consider 1 compound from patent publication US10968214B2, “KRas G12C inhibitors” (Eli Lilly and Company, priority 2018, dated 2021).

For one test, the system named is H1792. The test can be described thus: CellTiterGlo Cell Proliferation Assay, H1792. It counts as cell-based. The following applies: Homo sapiens, NCI-H1792, KRas G12C, Lung, 96 hr. How it is done:
A panel of tumor cell lines harboring KRas G12C or other KRas mutations are collected (Table 6). All cell lines are from ATCC or other sources indicated.
Typically cells are cultured in RPMI1640 or Dulbecco's modified Eagle's medium (DMEM, GIBCO) supplemented with 10% FBS (GIBCO, Invitrogen). For 2D culture cells (4×10^3/well) maintained in growth medium described above, are plated onto 96 well tissue culture plates Corning® Cat. 3603) a day before the treatment. For 3D culture 8000 cells/well are seeded onto 96 well ultra-low attachment tissue culture plates (Corning, #3474). The cells are treated compound for 96 hr, and then are analyzed for viability using the CellTiterGlo® Luminescent Cell Viability Assay® (Promega #G7572 for 2D and Promega #G9683 for 3D cultures) according to manufacturer's instructions and an EnVision™ plate reader. Nonlinear regression and sigmoidal dose-response curves are used to calculate the half maximal inhibitory concentration (IC50) with GraphPad Prism 4® software.

Test [1] has as its target T1, active KRas in H2122 xenograft tumors (Homo sapiens, UniProt P01116, G12C).
T1 construct: from tissue; host or cells: H2122 xenograft tumours from nude mice
The test can be described thus: In vivo target inhibition/PD, H2122 xenograft, active KRas. The following applies: NCI-H2122, mouse; for inhibition at 10 mg/kg: 10 mg/kg single dose; for inhibition at 30 mg/kg: 30 mg/kg single dose. On the procedure:
To evaluate in vivo target inhibition and anti-tumor efficacy of a compound, Human lung cancer cells, H358 or H2122 are implanted into nude mice xenograft tumor models. Either H358 or H2122 cells (10×10^6 in a 1:1 Matrigel® mix, 0.2 mL total volume) are implanted by subcutaneous injection in hind leg of nude female mice (Harlan Laboratories). A total of 5 mice each group are used for efficacy study, and a total of 3-4 mice each group are used for target engagement and PD study. Treatment is initiated with oral administration (gavage) of a test compound or vehicle (20% Captisol®, 25 mM phosphate, pH 2.0 in 0.2 mL volume when the tumor size reaches approximately […]. Tumor growth and body weight are monitored over time to evaluate efficacy and signs of toxicity. Bidimensional measurements of tumors are performed twice a week and tumor volumes are calculated based on mid-axis length and mid-axis width. Tumor volume data are transformed to a log scale to equalize variance across time and treatment groups. The log volume data are analyzed with a two-way repeated measures analysis of variance by time and treatment using the mixed procedures in SAS software (version 8.2). The correlation model for the repeated measures is spatial power. Treated groups are compared to the control group at each time point. The mixed procedure is also used separately for each treatment group to calculate adjusted means and standard errors at each time point. Both analyses account for the autocorrelation within each animal. The adjusted means and standard errors are plotted for each treatment group versus time.
For in vivo target inhibition and PD analysis, tumors are ground by mortar and pestle on dry ice and tumor fragments are added to 800 μL of lysis buffer containing 1% Triton X100, 25 mM Tris pH 7.5, 150 mM NaCl, 1 mM EDTA, and 1 mM EGTA with Halt protease and phosphatase inhibitor cocktail (Thermo Scientific, cat. no. 1861281) in lysing matrix D tubes (MP Biomedical®, cat. no. 6913-500) with one additional large bead (MP Biomedical® ¼″ ceramic sphere bead cat. no. 6540-412) per tube. Tumor fragments are homogenized in a Thermo Bio101® fast prep (FP120) at setting 4 for […] while cold for a total of 2 times. Lysates are spun at 14,000 rpm for 10 min at 4° C. to clarify. Protein estimation is done on the lysate supernatant using a BioRad Dc® protein assay and lysates are diluted in complete lysis/binding buffer from the Ras GTPase Chemi ELISA Kit® (Active Motif, cat. no. 52097). The active KRas ELISA was performed as follows: Glutathione-coated ELISA wells were incubated with diluted RAF1-GST in complete lysis/binding buffer for 1 hr at 4° C. with gentle agitation. Wells are washed 3 times with wash buffer and 100 μg of lysates are added to each well and incubated at RT for 1 hr with mild agitation. The wells are washed an additional 3 times, then primary antibody, diluted in antibody binding buffer, is added to each well. The plates are incubated for 1 hr. The wells are washed 3 more times before adding HRP-conjugated secondary antibody, diluted in antibody binding buffer, to each well. The plates are incubated at RT for 1 hr. ELISA wells are washed 4 times, chemiluminescent reagents is added and then luminescence is read. For pERK Meso Scale Discovery ELISA, 25 μg of protein containing 0.1% SDS is used; for pMEK Meso Scale Discovery ELISA, 50 μg of protein without SDS is used. Meso Scale Discovery Whole Cell Lysate Kits for pERK and pMEK are provided by Meso Scale Discovery.
After a single dose, the tumor samples are harvested at different time points. The tumor lysates are prepared as described above. The inhibition of pERK, pMEK, and active KRas is measured as described above.

[2] abbreviates: 2 hr, read-out: % Inhibition Active KRas.
[3] abbreviates: 4 hr, read-out: % Inhibition Active KRas.
Setting [4] is: 8 hr, read-out: % Inhibition Active KRas.
Where [5] appears, read: 12 hr, read-out: % Inhibition Active KRas.
The mark [6] stands for this setting: 24 hr, read-out: % Inhibition Active KRas.

Where two headings read alike, the source gives them in different places.

T1 sequence (P01116 1-188 isoform P01116-2 G12C): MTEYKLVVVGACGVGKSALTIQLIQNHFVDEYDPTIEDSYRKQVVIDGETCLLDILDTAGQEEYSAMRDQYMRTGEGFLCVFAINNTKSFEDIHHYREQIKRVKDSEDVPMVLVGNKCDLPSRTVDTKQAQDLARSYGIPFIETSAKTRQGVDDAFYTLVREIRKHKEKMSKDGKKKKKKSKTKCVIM

As to `C=CC(=O)N1CCN(c2ncnc3c(F)c(-c4ccc(F)c5sc(N)nc45)c(Cl)cc23)CC1` [Example 1, 1-{4-[7-(2-Amino-7-fluoro-1,3-benzothiazol-4-yl)-6-chloro-8-fluoroquinazolin-4-yl]piperazin-1-yl}prop-2-en-1-one], the values for the IC50 with H1792 (read-out: IC50 (μM) in 2 D cell proliferation) and in the test with H1792 (read-out: IC50 (μM) in 3 D spheroid cell proliferation) were 3.93 µM and 3.84 µM, respectively. The inhibition (commonly how much of the control response was suppressed) at 10 mg/kg in test [1] (setting [2]) is 25.8%; in test [1] (setting [3]) it was 32.3%; in test [1] (setting [4]), 34.7%; in test [1] (setting [5]), 37.1%; in test [1] (setting [6]) it was 16.7%; in test [1] (from 2-12 hr, read-out: active KRas inhibition), 26 to 37%. Also, the inhibition at 30 mg/kg in test [1] (setting [2]) is 57.5%; in test [1] (setting [3]) it was 78.8%; in test [1] (setting [4]), 67%; in test [1] (setting [5]), 46.5%; in test [1] (setting [6]) it was 26.1%; in test [1] (from 2-[…], read-out: active KRas inhibition), 26 to 79%. The compound further gave an inhibition at 100 mg/kg in test [1] (100 mg/kg single dose, 4 hr) of 90.6%.
